Experiments:
[1] = system: free virus particles present on the surface of labial herpes lesions; experiment: Clinical study 3: free virus particles on labial herpes lesions (Tzank test); assay type: in vivo, human (patients); conditions: labial lesion smears, twice daily application
Procedure: Labial lesion smears were collected and mean virus concentration was measured by quantifying the number of multinucleated virus-infected giant cells in each lesion using Tzank test, and the mean amount of free virus particles was determined in both groups.

rat dorsal skin lesions = experiment: In vivo rat wound healing; conditions: 0.2 ml per lesion for 7 consecutive days, filmogen glycerol as per the example N° 6
Procedure: The rat dorsal skin was shaved and 3 circular lesions, […] in diameter and depth, were made to the hypodermis with a dermatome. 0.2 ml of each test product was applied on each lesion for 7 consecutive days. Lesion diameter was measured every day and mean values were compared.

[2] = Osmolality and osmotic pressure of glycerol and seawater; assay type: physicochemical; conditions: pure glycerol
Excerpt: An injured skin or mucosa acts as a semi-permeable membrane and allows osmosis to occur. The flow of solvents across a semi-permeable membrane constitutes the osmotic flow or osmosis. The pressure required to achieve osmotic equilibrium is known as osmotic pressure. The higher the concentration of a […], the more osmotic pressure it exerts. Fresh water is considered isotonic with a density of 1000 kg/m^3. […] Osmotic pressure exerted by glycerol is nearly 10 times higher compared to seawater. The solute concentration of glycerol is also much higher compared to seawater. It is the total solute concentration in a solution that determines the osmotic flow of liquid, as osmosis is driven by differences in solute/solvent concentrations that exist across a semi-permeable membrane. The total solute concentration can be determined through the osmolality of the solution. […] Therefore, glycerol could have been a product of choice for application on infected surfaces in order to generate osmotic outflow of hypotonic liquid and to clean the injury. Unfortunately, the exudating hypotonic liquid immediately dilutes the glycerol and drains it from the wound surface within a few minutes, limiting these cleaning effects.

[3] = seawater containing […] NaCl; pure glycerol; cited from earlier work
[4] = system: human epidermis (normal human epithelial cells); experiment: In vitro osmotic/hydrating properties on dehydrated human epidermis culture; assay type: cell-based; conditions: 20 μl, day 7, filmogen glycerol = preparation n° 2 in Example 5 (Orosol)
Excerpt: In the absence of in vivo models to mimic the osmotic exudation of hypotonic liquid from the oral or vaginal mucosa, a cell culture model of human epidermis was used which contains normal human epithelial cells grown on a polycarbonate filter in an air/liquid phase. Under optimal conditions, a multilayered cell culture, equivalent to the mucosal surface is obtained on a polycarbonate support. This support is placed on a sponge in contact with a defined amount of culture medium. The medium diffuses into the sponge and the filter, and supplies nutrients as well as hydration to the cells. Under these conditions, the cell culture can be kept alive for at least a week.
To create an experimental model of mucosa dryness, we inserted one or two extra filters between the cells and the sponge, thereby reducing the amount of liquid medium available to the cells. In absence of hydration, cells die, and the cell mortality can be measured with a vital dye MU. Cell mortality is proportional to the culture surface's dryness. […]
The aim of this study was to evaluate the hydrating properties of filmogen glycerol compared to regular glycerol. […] Each epidermis was washed by stirring the culture in culture medium for 20 seconds on days 1, 3 and 5, and cell viability was measured on day 7 using MU staining.

[5] = system: human multilayered epidermis; experiment: Glycerol film retention on in vitro human multilayered epidermis (MTT cell viability); assay type: cell-based
Procedure: In the absence of any specific in vivo model to study the duration of the film retention by a biological surface, an in vitro model of human multilayered epidermis was used to evaluate the effects of the addition of non-cytotoxic concentrations of different PCD-rich plant extracts, either singly or in different associations, on glycerol film retention. Human epidermis was grown on a permeable polycarbonate filter (1 cm diameter) and was kept on a sponge soaked with culture medium, its outer surface remaining in contact with air, as is the case in vivo. Through capillary action, the culture medium diffuses through the polycarbonate filter and supplies nourishment to the epidermal cells to keep those cells alive.
Inserting one or two additional polycarbonate filters increases the distance between the culture medium and the cells; the amount of available medium, which reaches the cells, then decreases, and in absence of nutrients and hydration, the cells die. […] The percentage of live cells is proportional to the duration of retention of the glycerol film by the epidermal surface.
Various glycerol preparations containing test products (mainly PCD-rich plant extracts), at concentrations varying between 0.1 and 5.0%.
Quantity of Test Product Applied Per Epidermis: 20 μl
Glycerol preparations were directly applied on the epidermis as thin layer with the help of a pipette (n=6 per concentration): the epidermis was placed on two filters and the test product was applied on the epidermis surface. The filters were kept on a sponge, which was inserted in a petri dish containing an appropriate quantity of medium to nourish the cells. […]
The cell viability was scored as follows: • Score 4: 100% cells (compared to the controls) with intense blue color. • 3: Approximately 75% live cells with dark blue color. • 2: Approximately 50% live cells with medium blue color. • 1: Approximately 25% live cells with light blue color. • 0: No live cells, whitish epidermis color. […]

diabetic ulcers = conditions: human, in vivo
Procedure: Samples of wound fluid (100 μl) were collected at hourly intervals over a 6 h period, and the quantity of glycerol was measured.

[6] = system: nasal sinus infection (rhinosinusitis); experiment: Clinical study 4: rhinosinusitis; assay type: in vivo, human (patients)
Procedure: A 21-day controlled clinical trial of G-PCD compared to glycerol alone in patients suffering from acute symptoms of nasal sinus infection was performed.
The aim of this study was to evaluate the sinus-opening efficacy of G-PCD solution (32% glycerol, 1% plant PCDs in water) as per the example N° 5, compared to glycerol alone (32% glycerol in water). Among 127 patients suffering from acute and chronic sinusitis 109 were selected for the study. 58 patients were treated with G-PCD and 51 with glycerol. Products were administered as sprays (3 at each treatment application), 2-3 times per day for a maximum period of 21 days.
The parameters studied were: 1. Effect on nasal congestion and runny nose; 2. Effect on pain upon pressure around the nasal sinus surface; 3. Overall condition of the patient with respect to sinus infection; and 4. The influence on antibiotic therapy. […] Only 21% patients in the G-PCD group required antibiotic therapy for an average 7.41 days compared to 40% in the glycerol group for a period of 10.5 days (FIG. 8)

[7] = spray 2-3 times per day, glycerol = 32% glycerol in water

## OCC(O)CO [glycerol]
[1]
  mean amount of free virus particles, day 1: > 750
  mean amount of free virus particles, day 4: 635 (±17.51)
  mean amount of free virus particles, day 7: 542 (±22.35.)
  mean amount of free virus particles, day 14: 522 (±13.50)
Rat dorsal skin lesions
  Mean lesion size (diameter/day/lesion during 7 days): 2.95 cm^2
[2]
  osmotic activity compared to seawater: ~18 times
[3]
  osmolality (total solute/mol wt/kg): 10.86 mols/kg
[4]; 1 extra filter
  Mean score of cell survival after 1-week culture, partially dehydrated cultures: 62.3%
[4]; 2 extra filters
  Mean score of cell survival after 1-week culture, severely dehydrated cultures: 43.15%
[5]; 20 μl on epidermis placed on two filters, 37° C., 5% CO2, 72 h, MTT
  cell survival % after 72 h: 23.85 (±4.8) %
[5]; 72 h, positive controls without product 6.32%
  higher cell survival compared to the positive controls: 17.53%
[5]; glycerol control, free of any PCD extract
  cells die within 72 h: 60-70%
Diabetic ulcers; 1 h
  glycerol eliminated from the wound within 1 hour: ~92%
Diabetic ulcers; 2 h
  glycerol eliminated from the wound within 2 hours: 100%
[6]; 21-day trial
  patients requiring antibiotic therapy: 40%
[6]; patients who required antibiotics
  average duration of antibiotic therapy: 10.5 days
[6]; [7]
  nasal congestion symptom change after 30 minutes: −20.40%
  nasal congestion symptom change after 3 days: −19.09%
  nasal congestion symptom change after 7 days: −30.25%
  overall rhinosinusitis condition change after 30 minutes: −22.56%
  overall rhinosinusitis condition change after 3 days: +3.52%
  overall rhinosinusitis condition change after 7 days: −17.62%
  sinus pain symptom change after 30 minutes: −1.69%
  sinus pain symptom change after 3 days: −8.36%
  sinus pain symptom change after 7 days: −53.36%
[6]; within 30 minutes of first product administration
  increase in intensity of runny nose: 31.71%

Reference: patent publication US10335364B2, “Composition for topical application comprising glycerol and tannins” (priority 2013, dated 2019)
